Laboratory results taken from US20080021071A1, “3-{4-(Pyridin-3-Yl) Phenyl}-5-(1H-1,2,3-Triazol-1-Ylmethyl)-1,3-Oxazolidin-2-Ones as Antibacterial Agents” (ASTRAZENECA AB, priority 2004, published 2008).
≈ marks a conversion by molar mass, not a printed value. Structures can show the parent of a compound that is named as a salt.

Tests used:
[1] = test system: Staphylococcus aureus MSQS; assay: MIC, agar-dilution, Staphylococcus aureus MSQS; format: cell-based; details: Staphylococcus aureus MSQS (methicillin sensitive and quinolone sensitive)
Method: (§1) The following results were obtained on a standard in-vitro test system. The activity is described in terms of the minimum inhibitory concentration (MIC) determined by the agar-dilution technique with an inoculum size of 10^4 CFU/spot. Typically, compounds are active in the range 0.01 to 256 μg/ml.
(§2) Staphylococci were tested on agar, using an inoculum of 10^4 CFU/spot and an incubation temperature of 37° C. for 24 hours—standard test conditions for the expression of methicillin resistance.

[2] = test system: Streptococcus pneumoniae; assay: MIC, Streptococcus pneumoniae; format: cell-based
Method: as §1
(§3) Streptococci and enterococci were tested on agar supplemented with 5% defibrinated horse blood, an inoculum of 10^4 CFU/spot and an incubation temperature of 37° C. in an atmosphere of 5% carbon dioxide for 48 hours—blood is required for the growth of some of the test organisms. Fastidious Gram negative organisms were tested in Mueller-Hinton broth, supplemented with hemin and NAD, grown aerobically for 24 hours at 37° C., and with an innoculum of 5×10^4 CFU/well.

[3] = test system: Haemophilus influenzae; assay: MIC, Haemophilus influenzae; format: cell-based
Method: as §1, §3

[4] = target: T1, MAO-A (Homo sapiens, UniProt P21397); assay: MAO-A inhibition, standard in-vitro assay, human liver enzyme expressed in yeast; format: biochemical
T1 construct: made in house; host or cells: yeast
T1 sequence (P21397 1-527): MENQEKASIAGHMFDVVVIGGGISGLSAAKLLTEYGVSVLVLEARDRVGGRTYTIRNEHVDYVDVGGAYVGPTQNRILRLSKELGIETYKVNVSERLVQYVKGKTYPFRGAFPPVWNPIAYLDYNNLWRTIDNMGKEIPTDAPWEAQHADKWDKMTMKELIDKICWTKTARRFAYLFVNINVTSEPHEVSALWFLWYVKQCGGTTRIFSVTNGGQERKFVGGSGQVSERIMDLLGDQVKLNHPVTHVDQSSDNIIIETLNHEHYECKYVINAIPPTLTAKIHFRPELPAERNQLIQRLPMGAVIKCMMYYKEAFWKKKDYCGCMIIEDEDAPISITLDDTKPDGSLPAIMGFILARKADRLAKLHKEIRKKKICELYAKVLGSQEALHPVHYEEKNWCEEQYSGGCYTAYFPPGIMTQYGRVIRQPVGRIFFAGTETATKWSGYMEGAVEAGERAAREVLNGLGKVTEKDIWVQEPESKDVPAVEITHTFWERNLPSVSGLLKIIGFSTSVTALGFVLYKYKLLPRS
Method: The activity of the compounds of the invention against MAO-A was tested using a standard in-vitro assay based on human liver enzyme expressed in yeast as described in Biochem. Biophys. Res. Commun. 1991, 181, 1084-1088. Compounds of the invention typically give Ki values of >5 μM when measured in such an assay as above.

[5] = test system: Linezolid Resistant Streptococcus pneumoniae; assay: MIC, Linezolid Resistant Streptococcus pneumoniae; format: cell-based
Method: as §1, §3

[6] = test system: Staphylococcus aureus MRQR; assay: MIC, agar-dilution, Staphylococcus aureus MRQR; format: cell-based; details: Staphylococcus aureus MRQR (methicillin resistant and quinolone resistant)
Method: as §1, §2

[7] = equilibrium solubility in pH 7.4 phosphate buffer; format: physicochemical; details: aqueous buffer, thermodynamic from solid
Excerpt: It will be understood that parameters such as solubility may be measured by any suitable technique known in the art.

Row | SMILES | Ki [4] [µM] | melting point | other results
1 | O=C1O[C@@H](Cn2ccnn2)CN1c1ccc(-c2ccc(C(O)CN3CCOCC3)nc2)c(F)c1 (stereo partly drawn) [Example 1, (5R)-3-{3-Fluoro-4-[6-(1-hydroxy-2-morpholin-4-ylethyl)pyridin-3-yl]phenyl}-5-(1H-1,2,3-triazol-1-ylmethyl)-1,3-oxazolidin-2-one] | 94 |  | MIC [1]: 1 µg/mL (≈ 2.13 µM); MIC [2]: 0.25 µg/mL (≈ 0.534 µM); MIC [3]: 4 µg/mL (≈ 8.54 µM); MIC [5]: 2 µg/mL (≈ 4.27 µM); MIC [6]: 1 µg/mL (≈ 2.13 µM)
2 | N#Cc1ccc(-c2ccc(N3C[C@H](Cn4ccnn4)OC3=O)cc2F)cn1 [Ref Example 1, 5-{2-Fluoro-4-[(5R)-2-oxo-5-(1H-1,2,3-triazol-1-ylmethyl)-1,3-oxazolidin-3-yl]phenyl}pyridine-2-carbonitrile] | < 0.3 |  | 
3 | O=C(OCc1ccc(-c2ccc(N3C[C@H](Cn4ccnn4)OC3=O)cc2F)cn1)N1CCOCC1 [Example 13, (5-{2-Fluoro-4-[(5R)-2-oxo-5-(1H-1,2,3-triazol-1-ylmethyl)-1,3-oxazolidin-3-yl]phenyl}pyridin-2-yl)methyl morpholine-4-carboxylate] |  | 131 to 133 °C | 
4 | CN(Cc1ccc(-c2ccc(N3C[C@H](Cn4ccnn4)OC3=O)cc2F)cn1)CC(O)CO (stereo partly drawn) [Example 6, (5R)-3-[4-(6-{[(2,3-Dihydroxypropyl)(methyl)amino]methyl}pyridin-3-yl)-3-fluorophenyl]-5-(1-1,2,3-triazol-1-ylmethyl)-1,3-oxazolidin-2-one] |  | 123 °C | 
5 | CC(C)(O)c1ccc(-c2ccc(N3C[C@H](Cn4ccnn4)OC3=O)cc2F)cn1 [Example 5, (5R)-3-{3-Fluoro-4-[6-(1-hydroxy-1-methylethyl)pyridin-3-yl]phenyl}-5-(1-1,2,3-triazol-1-ylmethyl)-1,3-oxazolidin-2-one] |  | 180 °C | 
6 | O=C1O[C@@H](Cn2ccnn2)CN1c1ccc(-c2ccc(CN3CCOCC3)nc2)c(F)c1 [Example 9, (5R)-3-{3-Fluoro-4-[6-(morpholin-4-ylmethyl)pyridin-3-yl]phenyl}-5-(1H-1,2,3-triazol-1-ylmethyl)-1,3-oxazolidin-2-one] |  | 175 °C | 
7 | O=C1O[C@@H](Cn2ccnn2)CN1c1ccc(-c2ccc(C(O)CO)nc2)c(F)c1 (stereo partly drawn) [Example 4, (5R)-3-{4-[6-(1,2-Dihydroxyethyl)pyridin-3-yl]-3-fluorophenyl}-5-(1H-1,2,3-triazol-1-ylmethyl)-1,3-oxazolidin-2-one] | 48 | 175 °C | solubility thermodynamic [7]: 210 µM (≈ 83.9 µg/mL)
8 | Cn1nnc(-c2ccc(-c3ccc(N4C[C@H](Cn5ccnn5)OC4=O)cc3F)cn2)n1 [Reference Example 6, (5R)-3-(3-Fluoro-4-(6-(2-methyl-2H-tetrazol-5-yl)pyrid-3-yl)phenyl)-5-(1H-1,2,3-triazol-1-ylmethyl)-1,3-oxazolidin-2-one, reference compound] |  |  | solubility thermodynamic [7]: < 7.1 µM
9 | CC(=O)CC(O)c1ccc(-c2ccc(N3C[C@H](Cn4ccnn4)OC3=O)cc2F)cn1 (stereo partly drawn) [Example 14, (5R)-3-{3-Fluoro-4-[6(1-hydroxy-3-oxobutyl)pyridin-3-yl]phenyl}-5-(1H-1,2,3-triazol-1-ylmethyl)-1,3-oxazolidin-2-one] |  | 130 to 135 °C | 
10 | Cc1cnc(C)n1CC(O)c1ccc(-c2ccc(N3C[C@H](Cn4ccnn4)OC3=O)cc2F)cn1 (stereo partly drawn) [Example 20, (5R)-3-(4-{6-[2-(2,5-Dimethyl-1H-imidazol-1-yl)-1-hydroxyethyl]pyridin-3-yl}-3-fluorophenyl)-5-(1H-1,2,3-triazol-1-ylmethyl)-1,3-oxazolidin-2-one] |  | 195 to 200 °C | 
11 | O=C1O[C@@H](Cn2ccnn2)CN1c1ccc(-c2cccnc2)c(F)c1 [Ref Example 4, (5R)-3-(3-Fluoro-4-pyridin-3-ylphenyl)-5-(1H-1,2,3-triazol-1-ylmethyl)-1,3-oxazolidin-2-one] | < 0.3 |  | 
12 | O=C1O[C@@H](Cn2ccnn2)CN1c1ccc(-c2ccc(C(O)CN3CCOCC3)nc2)c(F)c1 (stereo partly drawn) (as salt: hydrochloride) [Example 1, (5R)-3-{3-Fluoro-4-[6-(1-hydroxy-2-morpholin-4-ylethyl)pyridin-3-yl]phenyl}-5-(1H-1,2,3-triazol-1-ylmethyl)-1,3-oxazolidin-2-one] |  | > 194 °C (dec.) | 
13 | CC(C)NCC(O)c1ccc(-c2ccc(N3C[C@H](Cn4ccnn4)OC3=O)cc2F)cn1 (stereo partly drawn) (as salt: hydrochloride) [Example 3, (5R)-3-(3-Fluoro-4-{6-[1-hydroxy-2-(isopropylamino)ethyl]pyridin-3-yl}phenyl)-5-(1H-1,2,3-triazol-1-ylmethyl)-1,3-oxazolidin-2-one] |  | > 170 °C (dec.) | 
14 | C[C@H](O)c1ccc(-c2ccc(N3C[C@H](Cn4ccnn4)OC3=O)cc2F)cn1 [Example 11, (5R)-3-(3-Fluoro-4-{6-[(1S)-1-hydroxyethyl]pyridin-3-yl}phenyl)-5-(1H-1,2,3-triazol-1-ylmethyl)-1,3-oxazolidin-2-one] |  | 183 °C | 
15 | C[C@@H](O)c1ccc(-c2ccc(N3C[C@H](Cn4ccnn4)OC3=O)cc2F)cn1 [Example 10, (5R)-3-(3-Fluoro-4-{6-[(1R)-1-hydroxyethyl]pyridin-3-yl}phenyl)-5-(1H-1,2,3-triazol-1-ylmethyl)-1,3-oxazolidin-2-one] |  | 190 °C | 
16 | CN(C)Cc1ccc(-c2ccc(N3C[C@H](Cn4ccnn4)OC3=O)cc2F)cn1 [Example 8] | 15 | 160 °C | 
17 | CN(C)CC(O)c1ccc(-c2ccc(N3C[C@H](Cn4ccnn4)OC3=O)cc2F)cn1 (stereo partly drawn) (as salt: hydrochloride) [Example 2, (5R)-3-(4-{6-[2-(Dimethylamino)-1-hydroxyethyl]pyridin-3-yl}-3-fluorophenyl)-5-(1H-1,2,3-triazol-1-ylmethyl)-1,3-oxazolidin-2-one] |  | > 115 °C (dec.) | 
18 | Cc1ccc(-c2ccc(N3C[C@H](Cn4ccnn4)OC3=O)cc2F)cn1 [Ref Example 2, (5R)-3-[3-Fluoro-4-(6-methylpyridin-3-yl)phenyl]-5-(1H-1,2,3-triazol-1-ylmethyl)-1,3-oxazolidin-2-one] | 0.6 |  | 
19 | Cc1cn(C[C@H]2CN(c3ccc(-c4ccc(C#N)nc4)c(F)c3)C(=O)O2)nn1 [Ref Example 7, 5-(2Fluoro-4-{(5R)-5-[(4-methyl-1H-1,2,3-triazol-1-yl)methyl]-2-oxo-1,3-oxazolidin-3-yl}phenyl)pyridine-2-carbonitrile] | 3.65 | 210 to 212 °C | 
20 | CN(CCO)Cc1ccc(-c2ccc(N3C[C@H](Cn4ccnn4)OC3=O)cc2F)cn1 [Example 7, (5R)-3-[3-Fluoro-4-(6-{[(2-hydroxyethyl)(methyl)amino]methyl}pyridin-3-yl)phenyl]-5-(1H-1,2,3-triazol-1-ylmethyl)-1,3-oxazolidin-2-one] |  | 137 °C | 
21 | O=C1O[C@@H](Cn2ccnn2)CN1c1ccc(-c2ccc(CO)nc2)c(F)c1 [Ref Example 3, (5R)-3-{3-Fluoro-4-[6-(hydroxymethyl)pyridin-3-yl]phenyl}-5-(1H-1,2,3-triazol-1-ylmethyl)-1,3-oxazolidin-2-one] | 4.8 | 177 °C | 
22 | O=C1O[C@@H](Cn2ccnn2)CN1c1ccc(-c2ccc(C(O)C3CC3)nc2)c(F)c1 (stereo partly drawn) [Example 16, (5R)-3-(4-{6-[Cyclopropyl(hydroxy)methyl]pyridin-3-yl}-3-fluorophenyl)-5-(1H-1,2,3-triazol-1-ylmethyl)-1,3-oxazolidin-2-one] |  | 160 to 163 °C | 
